The source of these data is patent US8921360B2, “Heterobicycle-substituted azolyl benzene fungicides” (priority 2009, dated 2014).

Type in all cases: in vivo
The test system of assay [1] is Erysiphe graminis f. sp. tritici. In words: Test A: wheat powdery mildew, preventive spray on wheat seedlings. As to conditions: 200 ppm; wheat seedlings sprayed to run-off, inoculated next day, rated after 8 days; 100 = 100% disease control, 0 = no control. The text has this: General protocol for preparing test suspensions for Tests A-G: the test compounds were first dissolved in acetone in an amount equal to 11% of the final volume and then suspended at the desired concentration (in ppm) in acetone and purified water (50/50 mix by volume) containing 250 ppm of the surfactant Trem® 014 (polyhydric alcohol esters). The resulting test suspensions were then used in Tests A-G. Spraying a 200 ppm test suspension to the point of run-off on the test plants was the equivalent of a rate of 800 g/ha. The test suspension was sprayed to the point of run-off on wheat seedlings. The following day the seedlings were inoculated with a spore dust of Erysiphe graminis f. sp. tritici, (the causal agent of wheat powdery mildew) and incubated in a growth chamber at 20° C. for 8 days, after which time disease ratings were visually made. Results for Tests A-G are given in Table A. In the Table, a rating of 100 indicates 100% disease control and a rating of 0 indicates no disease control (relative to the controls). A dash (-) indicates no test results. All results are for 200 ppm except where followed by an “*”, which indicates 40 ppm.

Assay [2] relates to Puccinia recondita f sp. tritici. Description: Test B: wheat leaf rust, preventive spray on wheat seedlings. As to conditions: 200 ppm; wheat seedlings sprayed to run-off, inoculated next day, rated after 24 h + 7 days. The text has this: General protocol for preparing test suspensions for Tests A-G: the test compounds were first dissolved in acetone in an amount equal to 11% of the final volume and then suspended at the desired concentration (in ppm) in acetone and purified water (50/50 mix by volume) containing 250 ppm of the surfactant Trem® 014 (polyhydric alcohol esters). The resulting test suspensions were then used in Tests A-G. Spraying a 200 ppm test suspension to the point of run-off on the test plants was the equivalent of a rate of 800 g/ha. The test suspension was sprayed to the point of run-off on wheat seedlings. The following day the seedlings were inoculated with a spore suspension of Puccinia recondita f sp. tritici (the causal agent of wheat leaf rust) and incubated in a saturated atmosphere at 20° C. for 24 h, and then moved to a growth chamber at 20° C. for 7 days, after which time disease ratings were visually made. Results for Tests A-G are given in Table A. In the Table, a rating of 100 indicates 100% disease control and a rating of 0 indicates no disease control (relative to the controls). A dash (-) indicates no test results. All results are for 200 ppm except where followed by an “*”, which indicates 40 ppm.

Assay [3] relates to Puccinia recondita f. sp. tritici. In words: Test C: wheat leaf rust, spray the day after inoculation of wheat seedlings.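 Note: Curative spray on infected wheat seedlings with visual rating 5 days later.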 As to conditions: 200 ppm; wheat seedlings inoculated, sprayed the following day, rated after 5 days. The text has this:
General protocol for preparing test suspensions for Tests A-G: the test compounds were first dissolved in acetone in an amount equal to 11% of the final volume and then suspended at the desired concentration (in ppm) in acetone and purified water (50/50 mix by volume) containing 250 ppm of the surfactant Trem® 014 (polyhydric alcohol esters). The resulting test suspensions were then used in Tests A-G. Spraying a 200 ppm test suspension to the point of run-off on the test plants was the equivalent of a rate of 800 g/ha. Wheat seedlings were inoculated with a spore suspension of Puccinia recondita f. sp. tritici (the causal agent of wheat leaf rust) and incubated in a saturated atmosphere at 20° C. for 24 h. The following day, the test suspension was sprayed to the point of run-off on the wheat seedlings and then moved to a growth chamber at 20° C. for 5 days, after which time disease ratings were visually made. Results for Tests A-G are given in Table A. In the Table, a rating of 100 indicates 100% disease control and a rating of 0 indicates no disease control (relative to the controls). A dash (-) indicates no test results. All results are for 200 ppm except where followed by an “*”, which indicates 40 ppm.

The next assay concerns Septoria nodorum. Description: Test D: wheat glume blotch, preventive spray on wheat seedlings. As to conditions: 200 ppm; wheat seedlings sprayed to run-off, inoculated next day, rated after 48 h + 7 days. The text has this:
General protocol for preparing test suspensions for Tests A-G: the test compounds were first dissolved in acetone in an amount equal to 11% of the final volume and then suspended at the desired concentration (in ppm) in acetone and purified water (50/50 mix by volume) containing 250 ppm of the surfactant Trem® 014 (polyhydric alcohol esters). The resulting test suspensions were then used in Tests A-G. Spraying a 200 ppm test suspension to the point of run-off on the test plants was the equivalent of a rate of 800 g/ha. The test suspension was sprayed to the point of run-off on wheat seedlings. The following day the seedlings were inoculated with a spore suspension of Septoria nodorum (the causal agent of wheat glume blotch) and incubated in a saturated atmosphere at 20° C. for 48 h, and then moved to a growth chamber at 20° C. for 7 days, after which time disease ratings were visually made. Results for Tests A-G are given in Table A. In the Table, a rating of 100 indicates 100% disease control and a rating of 0 indicates no disease control (relative to the controls). A dash (-) indicates no test results. All results are for 200 ppm except where followed by an “*”, which indicates 40 ppm.

For the next assay, the system named is Septoria tritici. In words: Test E: wheat leaf blotch, preventive spray on wheat seedlings. As to conditions: 200 ppm; wheat seedlings sprayed to run-off, inoculated next day, rated after 48 h + 19 days. The text has this:
General protocol for preparing test suspensions for Tests A-G: the test compounds were first dissolved in acetone in an amount equal to 11% of the final volume and then suspended at the desired concentration (in ppm) in acetone and purified water (50/50 mix by volume) containing 250 ppm of the surfactant Trem® 014 (polyhydric alcohol esters). The resulting test suspensions were then used in Tests A-G. Spraying a 200 ppm test suspension to the point of run-off on the test plants was the equivalent of a rate of 800 g/ha. The test suspension was sprayed to the point of run-off on wheat seedlings. The following day the seedlings were inoculated with a spore suspension of Septoria tritici (the causal agent of wheat leaf blotch) and incubated in a saturated atmosphere at 24° C. for 48 h, and then moved to a growth chamber at 20° C. for 19 days, after which time disease ratings were visually made. Results for Tests A-G are given in Table A. In the Table, a rating of 100 indicates 100% disease control and a rating of 0 indicates no disease control (relative to the controls). A dash (-) indicates no test results. All results are for 200 ppm except where followed by an “*”, which indicates 40 ppm.

In the next assay the test system is Botrytis cinerea. In words: Test F: tomato botrytis, preventive spray on tomato seedlings. As to conditions: 200 ppm; tomato seedlings sprayed to run-off, inoculated next day, rated after 48 h + 3 days. The text has this:
General protocol for preparing test suspensions for Tests A-G: the test compounds were first dissolved in acetone in an amount equal to 11% of the final volume and then suspended at the desired concentration (in ppm) in acetone and purified water (50/50 mix by volume) containing 250 ppm of the surfactant Trem® 014 (polyhydric alcohol esters). The resulting test suspensions were then used in Tests A-G. Spraying a 200 ppm test suspension to the point of run-off on the test plants was the equivalent of a rate of 800 g/ha. The test suspension was sprayed to the point of run-off on tomato seedlings. The following day the seedlings were inoculated with a spore suspension of Botrytis cinerea (the causal agent of tomato botrytis) and incubated in saturated atmosphere at 20° C. for 48 h, and then moved to a growth chamber at 27° C. for 3 additional days, after which time disease ratings were visually made. Results for Tests A-G are given in Table A. In the Table, a rating of 100 indicates 100% disease control and a rating of 0 indicates no disease control (relative to the controls). A dash (-) indicates no test results. All results are for 200 ppm except where followed by an “*”, which indicates 40 ppm.

In a further assay the test system is Alternaria solani. Description: Test G: tomato early blight, preventive spray on tomato seedlings. As to conditions: 200 ppm; tomato seedlings sprayed to run-off, inoculated next day, rated after 48 h + 5 days. The text has this:
General protocol for preparing test suspensions for Tests A-G: the test compounds were first dissolved in acetone in an amount equal to 11% of the final volume and then suspended at the desired concentration (in ppm) in acetone and purified water (50/50 mix by volume) containing 250 ppm of the surfactant Trem® 014 (polyhydric alcohol esters). The resulting test suspensions were then used in Tests A-G. Spraying a 200 ppm test suspension to the point of run-off on the test plants was the equivalent of a rate of 800 g/ha. The test suspension was sprayed to the point of run-off on tomato seedlings. The following day the seedlings were inoculated with a spore suspension of Alternaria solani (the causal agent of tomato early blight) and incubated in a saturated atmosphere at 27° C. for 48 h, and then moved to a growth chamber at 24° C. for 5 days, after which time disease ratings were visually made. Results for Tests A-G are given in Table A. In the Table, a rating of 100 indicates 100% disease control and a rating of 0 indicates no disease control (relative to the controls). A dash (-) indicates no test results. All results are for 200 ppm except where followed by an “*”, which indicates 40 ppm.

As to `COC(=O)NCc1cc(-n2ccc(-c3ccc4c(c3)C(=O)CCO4)n2)ccc1F` [Compound 18], the “Percentage Disease Control Test A” value in assay [1] worked out at 90%. Besides, the “Percentage Disease Control Test B” value in assay [2] worked out at 100%. The “Percentage Disease Control Test C” value in assay [3] was determined as 74%. For the same compound, the “Percentage Disease Control Test D” value in the assay on Septoria nodorum came out at 99%. Moreover, the “Percentage Disease Control Test E” value in the assay with Septoria tritici is reported as 97%. Also, in the assay on Botrytis cinerea, the “Percentage Disease Control Test F” value is listed as 79%. Besides, in the assay on Alternaria solani, the “Percentage Disease Control Test G” value is 50%.

In the case of `COC(=O)NCc1cc(-c2ccn(-c3ccc4c(c3)OCCO4)n2)ccc1C` [Compound 19], the “Percentage Disease Control Test A” value in assay [1] came out at 100%. For the same compound, the “Percentage Disease Control Test B” value in assay [2] turned out to be 100%. The “Percentage Disease Control Test C” value in assay [3] was 100%. Further, the “Percentage Disease Control Test D” value in the assay with Septoria nodorum is 100%. The “Percentage Disease Control Test E” value with Septoria tritici is recorded as 100%. In addition, the “Percentage Disease Control Test F” value in the assay with Botrytis cinerea is listed as 99%. The “Percentage Disease Control Test G” value with Alternaria solani was determined as 73%.

As to `COC(=O)NCc1cc(-n2ccc(-c3ccc4c(c3)N(C)CCO4)n2)ccc1F` [Compound 21], the “Percentage Disease Control Test A” value in assay [1] was determined as 13%. In addition, in assay [2], the “Percentage Disease Control Test B” value is recorded as 100%. The “Percentage Disease Control Test C” value in assay [3] is 98%. Besides, the “Percentage Disease Control Test D” value in the assay on Septoria nodorum stood at 100%. Besides, in the assay on Septoria tritici, the “Percentage Disease Control Test E” value was 96%. The “Percentage Disease Control Test F” value in the assay with Botrytis cinerea worked out at 99%. For the same compound, in the assay with Alternaria solani, the “Percentage Disease Control Test G” value stood at 99%.

On to `COC(=O)NCc1cc(-n2ccc(-c3ccc4c(c3)C(F)CCO4)n2)ccc1F` (stereo not drawn) [Compound 22], for which, in assay [1], the “Percentage Disease Control Test A” value came out at 100%. In assay [2], the “Percentage Disease Control Test B” value was found to be 100%. The “Percentage Disease Control Test C” value in assay [3] is recorded as 100%. Besides, in the assay with Septoria nodorum, the “Percentage Disease Control Test D” value is recorded as 100%. For the same compound, the “Percentage Disease Control Test E” value in the assay with Septoria tritici is 94%. Also, in the assay on Botrytis cinerea, the “Percentage Disease Control Test F” value is 33%. Moreover, the “Percentage Disease Control Test G” value in the assay with Alternaria solani is 8%.

Turning to `COC(=O)NCc1cc(-n2ccc(-c3ccc4c(c3)OCCO4)n2)ccc1C` [Compound 26], the “Percentage Disease Control Test A” value in assay [1] came out at 100%. The “Percentage Disease Control Test B” value in assay [2] is 100%. In assay [3], the “Percentage Disease Control Test C” value is given as 100%. For the same compound, in the assay with Septoria nodorum, the “Percentage Disease Control Test D” value is recorded as 100%. Moreover, the “Percentage Disease Control Test E” value with Septoria tritici came to 99%. Further, the “Percentage Disease Control Test F” value with Botrytis cinerea turned out to be 33%. Also, the “Percentage Disease Control Test G” value with Alternaria solani is recorded as 9%.

Turning to `COC(=O)NCc1cc(-c2ccn(-c3ccc4c(c3)C=C(C#N)CO4)n2)ccc1Cl` [Compound 27], in assay [1], the “Percentage Disease Control Test A” value is 0%. Also, the “Percentage Disease Control Test B” value in assay [2] is 99%. Further, the “Percentage Disease Control Test C” value in assay [3] is 0%. Also, the “Percentage Disease Control Test D” value with Septoria nodorum is on record as 100%. In the assay with Septoria tritici, the “Percentage Disease Control Test E” value was 0%. Further, in the assay on Botrytis cinerea, the “Percentage Disease Control Test F” value came to 66%. Besides, in the assay with Alternaria solani, the “Percentage Disease Control Test G” value is recorded as 86%.
